Reference: the kinase profiling compilation of Christmann-Franck et al. (2016)

Assays:
Assay in all cases: radiometric filter-binding kinase assay, Kinaseprofiler
AURKB (human) = AURKB (human) (UniProt Q96GD4); details: ATP 10 µM
BRSK1 (human) = BRSK1 (human) (UniProt Q8TDC3); details: ATP 200 µM
BTK (human) = BTK (human) (UniProt Q06187); details: ATP 200 µM
CAMK1D (human) = CAMK1D (human) (UniProt Q8IU85); details: compound 10.0 µM; ATP 15 µM
CAMK2B (human) = CAMK2B (human) (UniProt Q13554); details: ATP 15 µM
Sequence of CAMK2B (human) (Q13554 whole entry, looked up): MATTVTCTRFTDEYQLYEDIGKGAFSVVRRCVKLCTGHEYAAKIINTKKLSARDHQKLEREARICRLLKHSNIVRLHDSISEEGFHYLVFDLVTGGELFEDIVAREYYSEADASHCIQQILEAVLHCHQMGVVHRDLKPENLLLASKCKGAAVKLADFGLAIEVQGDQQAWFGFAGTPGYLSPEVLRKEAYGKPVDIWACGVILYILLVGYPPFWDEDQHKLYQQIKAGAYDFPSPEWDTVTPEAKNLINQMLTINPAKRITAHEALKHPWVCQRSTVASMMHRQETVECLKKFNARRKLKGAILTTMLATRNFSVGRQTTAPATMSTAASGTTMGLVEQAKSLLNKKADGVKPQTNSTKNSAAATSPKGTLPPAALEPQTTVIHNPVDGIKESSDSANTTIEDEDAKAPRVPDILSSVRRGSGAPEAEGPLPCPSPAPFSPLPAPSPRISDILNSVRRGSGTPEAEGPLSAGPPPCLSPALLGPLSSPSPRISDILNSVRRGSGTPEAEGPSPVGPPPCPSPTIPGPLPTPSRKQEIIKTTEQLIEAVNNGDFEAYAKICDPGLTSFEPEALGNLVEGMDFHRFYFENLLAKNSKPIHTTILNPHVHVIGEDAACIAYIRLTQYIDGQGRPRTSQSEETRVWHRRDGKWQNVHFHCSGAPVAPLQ

CDK1 CCNB1 (human) = CDK1 CCNB1 (human) (UniProt P06493+P14635); details: compound 10.0 µM; ATP 45 µM
CDK2 CCNA2 (human) = CDK2 CCNA2 (human) (UniProt P24941+P20248); details: ATP 45 µM
CDK2 CCNE1 (human) = CDK2 CCNE1 (human) (UniProt P24941+P24864); details: ATP 120 µM
Sequence of CDK2 CCNE1 (human) (P24864 whole entry, looked up, other chains not shown): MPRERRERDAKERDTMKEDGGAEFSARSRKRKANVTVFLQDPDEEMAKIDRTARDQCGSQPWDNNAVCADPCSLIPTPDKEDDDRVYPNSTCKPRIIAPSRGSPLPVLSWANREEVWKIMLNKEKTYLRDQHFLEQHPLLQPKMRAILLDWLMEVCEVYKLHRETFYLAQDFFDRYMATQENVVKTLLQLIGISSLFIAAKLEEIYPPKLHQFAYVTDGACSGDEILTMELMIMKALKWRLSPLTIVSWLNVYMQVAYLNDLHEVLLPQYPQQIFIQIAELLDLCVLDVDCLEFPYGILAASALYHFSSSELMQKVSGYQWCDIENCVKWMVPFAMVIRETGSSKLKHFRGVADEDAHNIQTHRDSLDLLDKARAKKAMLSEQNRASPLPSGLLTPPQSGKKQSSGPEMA

CDK7 CCNH MNAT1 (human) = CDK7 CCNH MNAT1 (human) (UniProt P50613+P51948+P51946); details: ATP 90 µM
CHEK1 (human) = CHEK1 (human) (UniProt O14757); details: compound 10.0 µM; ATP 90 µM
DYRK2 (human) = DYRK2 (human) (UniProt Q92630); details: compound 10.0 µM; ATP 15 µM
EPHA1 (human) = EPHA1 (human) (UniProt P21709); details: compound 10.0 µM; ATP 45 µM
FLT1 (human) = FLT1 (human) (UniProt P17948); details: ATP 200 µM
Sequence of FLT1 (human) (P17948 whole entry, looked up): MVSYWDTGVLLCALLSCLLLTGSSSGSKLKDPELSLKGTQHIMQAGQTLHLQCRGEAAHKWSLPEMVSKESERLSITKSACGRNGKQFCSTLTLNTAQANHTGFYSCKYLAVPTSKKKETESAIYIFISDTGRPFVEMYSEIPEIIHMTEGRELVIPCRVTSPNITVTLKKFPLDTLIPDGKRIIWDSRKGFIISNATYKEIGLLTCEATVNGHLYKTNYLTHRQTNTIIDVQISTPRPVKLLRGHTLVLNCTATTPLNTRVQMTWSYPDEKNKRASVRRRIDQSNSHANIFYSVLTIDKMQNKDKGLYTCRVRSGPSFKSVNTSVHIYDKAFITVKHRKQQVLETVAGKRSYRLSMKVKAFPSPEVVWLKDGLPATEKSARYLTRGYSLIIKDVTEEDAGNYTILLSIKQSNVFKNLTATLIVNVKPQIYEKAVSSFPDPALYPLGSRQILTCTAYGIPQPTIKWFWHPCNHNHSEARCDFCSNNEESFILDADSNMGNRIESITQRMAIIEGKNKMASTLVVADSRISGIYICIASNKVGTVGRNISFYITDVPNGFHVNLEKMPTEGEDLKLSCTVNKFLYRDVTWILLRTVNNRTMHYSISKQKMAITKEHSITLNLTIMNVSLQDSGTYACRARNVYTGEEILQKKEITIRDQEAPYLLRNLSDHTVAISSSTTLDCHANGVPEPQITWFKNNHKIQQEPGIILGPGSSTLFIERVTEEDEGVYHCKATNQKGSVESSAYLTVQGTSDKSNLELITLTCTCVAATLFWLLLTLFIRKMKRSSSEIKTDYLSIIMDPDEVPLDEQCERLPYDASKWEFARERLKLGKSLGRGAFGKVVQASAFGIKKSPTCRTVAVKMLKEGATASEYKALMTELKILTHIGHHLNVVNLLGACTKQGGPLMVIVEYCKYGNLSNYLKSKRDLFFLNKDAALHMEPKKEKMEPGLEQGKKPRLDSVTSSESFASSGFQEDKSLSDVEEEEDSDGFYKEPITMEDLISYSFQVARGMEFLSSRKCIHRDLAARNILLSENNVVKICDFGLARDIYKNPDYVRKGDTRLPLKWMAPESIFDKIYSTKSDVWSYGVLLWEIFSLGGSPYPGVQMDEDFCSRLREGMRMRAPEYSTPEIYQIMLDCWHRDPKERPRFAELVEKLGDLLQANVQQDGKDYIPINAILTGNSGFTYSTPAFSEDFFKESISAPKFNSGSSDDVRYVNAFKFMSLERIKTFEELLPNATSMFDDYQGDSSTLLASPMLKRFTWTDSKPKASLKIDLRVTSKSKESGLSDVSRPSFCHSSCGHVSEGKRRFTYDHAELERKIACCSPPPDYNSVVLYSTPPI

FLT3 (human) = FLT3 (human) (UniProt P36888); details: compound 1.0 µM; ATP 200 µM
[1] = system: FLT4 (human), P35916 [V1128L/H1146R]; details: compound 1.0 µM; ATP 200 µM
[2] = system: HIPK2 (human), Q9H2X6 [I471N]; details: compound 10.0 µM; ATP 10 µM
INSR (human) = INSR (human) (UniProt P06213); details: compound 10.0 µM; ATP 45 µM
IRAK1 (human) = IRAK1 (human) (UniProt P51617); details: compound 10.0 µM; ATP 45 µM
[3] = target: JAK2 JH1 catalytic (human) (UniProt O60674); details: compound 10.0 µM; ATP 45 µM
[4] = target: JAK3 JH1 catalytic (human) (UniProt P52333); details: ATP 10 µM
KDR (human) = KDR (human) (UniProt P35968); details: compound 10.0 µM; ATP 90 µM
MAP3K9 (human) = MAP3K9 (human) (UniProt P80192); details: compound 10.0 µM; ATP 45 µM
MKNK2 (human) = MKNK2 (human) (UniProt Q9HBH9); details: ATP 120 µM
PAK4 (human) = PAK4 (human) (UniProt O96013); details: compound 10.0 µM; ATP 10 µM
PDPK1 (human) = PDPK1 (human) (UniProt O15530); details: ATP 10 µM
Sequence of PDPK1 (human) (O15530 whole entry, looked up): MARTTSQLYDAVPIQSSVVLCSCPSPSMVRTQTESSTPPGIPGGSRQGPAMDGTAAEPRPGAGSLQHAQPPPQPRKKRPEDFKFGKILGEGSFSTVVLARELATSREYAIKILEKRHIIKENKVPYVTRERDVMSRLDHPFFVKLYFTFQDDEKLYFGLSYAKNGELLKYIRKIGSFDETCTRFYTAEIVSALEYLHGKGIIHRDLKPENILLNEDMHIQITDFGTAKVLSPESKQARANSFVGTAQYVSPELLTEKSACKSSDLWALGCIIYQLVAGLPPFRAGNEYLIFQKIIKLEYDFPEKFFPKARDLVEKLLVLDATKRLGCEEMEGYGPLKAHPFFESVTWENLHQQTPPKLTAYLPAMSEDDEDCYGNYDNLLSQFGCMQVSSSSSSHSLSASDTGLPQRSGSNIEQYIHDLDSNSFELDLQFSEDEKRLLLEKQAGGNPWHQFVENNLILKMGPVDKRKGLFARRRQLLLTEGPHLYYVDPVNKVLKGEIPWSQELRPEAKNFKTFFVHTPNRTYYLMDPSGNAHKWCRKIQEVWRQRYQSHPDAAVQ

PIM2 (human) = PIM2 (human) (UniProt Q9P1W9); details: compound 10.0 µM; ATP 15 µM
[5] = target: PRKAA1 PRKAB1 PRKAG1 (human) (UniProt P54619+Q13131+Q9Y478); details: ATP 45 µM
PRKCA (human) = PRKCA (human) (UniProt P17252); details: compound 10.0 µM; ATP 45 µM
PRKX (human) = PRKX (human) (UniProt P51817); details: compound 10.0 µM; ATP 200 µM
RPS6KA6 KD1 KD2 (human) = RPS6KA6 KD1 KD2 (human) (UniProt Q9UK32); details: compound 1.0 µM; ATP 45 µM
STK33 (human) = STK33 (human) (UniProt Q9BYT3); details: compound 10.0 µM; ATP 155 µM
TNK2 (human) = TNK2 (human) (UniProt Q07912); details: ATP 70 µM
TSSK1B (human) = TSSK1B (human) (UniProt Q9BXA7); details: ATP 15 µM
Sequence of TSSK1B (human) (Q9BXA7 whole entry, looked up): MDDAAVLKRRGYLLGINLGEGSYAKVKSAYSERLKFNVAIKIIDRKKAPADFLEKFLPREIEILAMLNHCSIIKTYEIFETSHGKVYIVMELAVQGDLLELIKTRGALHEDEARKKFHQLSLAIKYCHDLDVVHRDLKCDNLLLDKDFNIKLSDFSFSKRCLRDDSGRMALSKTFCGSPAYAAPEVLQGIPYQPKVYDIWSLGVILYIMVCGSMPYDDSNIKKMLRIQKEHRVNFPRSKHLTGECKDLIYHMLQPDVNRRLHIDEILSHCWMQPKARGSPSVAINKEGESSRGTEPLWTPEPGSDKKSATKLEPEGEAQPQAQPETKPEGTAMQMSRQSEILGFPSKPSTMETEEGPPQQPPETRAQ

TSSK2 (human) = TSSK2 (human) (UniProt Q96PF2); details: compound 10.0 µM; ATP 15 µM
ULK2 (human) = ULK2 (human) (UniProt Q8IYT8); details: compound 10.0 µM; ATP 15 µM

Sequence of BTK (human) (Q06187 whole entry, looked up): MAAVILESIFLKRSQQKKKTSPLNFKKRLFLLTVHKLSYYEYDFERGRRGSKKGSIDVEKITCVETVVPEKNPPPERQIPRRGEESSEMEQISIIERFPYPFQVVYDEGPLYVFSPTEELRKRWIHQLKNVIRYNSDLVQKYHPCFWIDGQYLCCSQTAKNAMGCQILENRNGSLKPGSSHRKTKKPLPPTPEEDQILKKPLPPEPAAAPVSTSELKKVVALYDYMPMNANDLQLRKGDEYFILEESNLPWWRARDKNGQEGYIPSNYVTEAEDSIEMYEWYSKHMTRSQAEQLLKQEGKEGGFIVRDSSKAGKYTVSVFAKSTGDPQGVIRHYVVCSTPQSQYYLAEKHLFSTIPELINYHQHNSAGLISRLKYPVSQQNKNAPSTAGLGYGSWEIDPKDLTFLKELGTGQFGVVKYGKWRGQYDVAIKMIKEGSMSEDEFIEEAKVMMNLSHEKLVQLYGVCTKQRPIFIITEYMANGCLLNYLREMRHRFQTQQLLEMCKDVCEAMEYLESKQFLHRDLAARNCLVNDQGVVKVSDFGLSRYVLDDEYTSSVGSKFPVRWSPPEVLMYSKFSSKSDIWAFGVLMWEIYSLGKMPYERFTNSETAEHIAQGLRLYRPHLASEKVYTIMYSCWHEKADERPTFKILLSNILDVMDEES
Sequence of BRSK1 (human) (Q8TDC3 whole entry, looked up): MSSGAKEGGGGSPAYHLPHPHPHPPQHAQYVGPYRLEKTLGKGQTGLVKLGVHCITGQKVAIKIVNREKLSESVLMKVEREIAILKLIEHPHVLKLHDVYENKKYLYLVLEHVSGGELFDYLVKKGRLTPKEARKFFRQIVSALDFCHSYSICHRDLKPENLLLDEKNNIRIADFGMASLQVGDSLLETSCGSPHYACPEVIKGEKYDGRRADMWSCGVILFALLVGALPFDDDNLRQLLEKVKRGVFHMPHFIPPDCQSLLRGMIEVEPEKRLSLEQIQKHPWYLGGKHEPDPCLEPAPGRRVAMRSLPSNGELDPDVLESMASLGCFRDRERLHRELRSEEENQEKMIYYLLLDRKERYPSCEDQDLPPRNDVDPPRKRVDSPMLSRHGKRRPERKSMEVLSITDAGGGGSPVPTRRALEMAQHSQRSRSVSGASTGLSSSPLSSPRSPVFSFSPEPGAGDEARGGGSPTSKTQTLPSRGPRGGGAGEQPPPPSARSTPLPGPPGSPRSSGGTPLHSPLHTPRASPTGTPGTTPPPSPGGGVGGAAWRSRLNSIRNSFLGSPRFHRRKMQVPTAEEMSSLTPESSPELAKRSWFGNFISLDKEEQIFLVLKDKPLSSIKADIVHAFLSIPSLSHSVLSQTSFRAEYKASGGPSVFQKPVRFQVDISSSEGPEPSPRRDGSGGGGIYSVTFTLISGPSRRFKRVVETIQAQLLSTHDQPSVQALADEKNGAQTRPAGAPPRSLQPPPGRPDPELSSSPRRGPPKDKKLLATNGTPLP

Q: `COC(=O)[C@]1(O)C[C@@H]2O[C@@]1(C)n1c3ccccc3c3c4c(c5c6ccccc6n2c5c31)C(=O)NC4` was tested. Which residual activity (AURKB (human); compound 1.0 µM) did it give?
A: 0%

Q: What about the residual activity (AURKB (human); compound 10.0 µM) of the same compound?
A: 0%

Q: And the residual activity (BRSK1 (human); compound 1.0 µM)?
A: -1%

Q: And the residual activity (BRSK1 (human); compound 10.0 µM)?
A: 0%

Q: And the residual activity (BTK (human); compound 1.0 µM)?
A: -1%

Q: What about the residual activity (BTK (human); compound 10.0 µM) of the same compound?
A: -1%

Q: And the residual activity (CAMK1D (human))?
A: 0%

Q: And the residual activity (CAMK2B (human); compound 1.0 µM)?
A: 0%

Q: And the residual activity (CAMK2B (human); compound 10.0 µM)?
A: -1%

Q: And the residual activity (CDK1 CCNB1 (human))?
A: -1%

Q: And the residual activity (CDK2 CCNA2 (human); compound 1.0 µM)?
A: 1%

Q: What about the residual activity (CDK2 CCNA2 (human); compound 10.0 µM) of the same compound?
A: 0%

Q: What about the residual activity (CDK2 CCNE1 (human); compound 1.0 µM) of the same compound?
A: 6%

Q: What about the residual activity (CDK2 CCNE1 (human); compound 10.0 µM) of the same compound?
A: 0%

Q: What about the residual activity (CDK7 CCNH MNAT1 (human); compound 1.0 µM) of the same compound?
A: 55%

Q: And the residual activity (CDK7 CCNH MNAT1 (human); compound 10.0 µM)?
A: 16%

Q: What about the residual activity (CHEK1 (human)) of the same compound?
A: -1%

Q: What about the residual activity (DYRK2 (human)) of the same compound?
A: -4%

Q: What about the residual activity (EPHA1 (human)) of the same compound?
A: 0%

Q: What about the residual activity (FLT1 (human); compound 1.0 µM) of the same compound?
A: 0%

Q: What about the residual activity (FLT1 (human); compound 10.0 µM) of the same compound?
A: 0%

Q: What about the residual activity (FLT3 (human)) of the same compound?
A: 0%

Q: And the residual activity [1]?
A: 0%

Q: And the residual activity [2]?
A: -1%

Q: And the residual activity (INSR (human))?
A: 0%

Q: What about the residual activity (IRAK1 (human)) of the same compound?
A: 0%

Q: What about the residual activity [3] of the same compound?
A: -1%

Q: What about the residual activity ([4]; compound 1.0 µM) of the same compound?
A: 0%

Q: What about the residual activity ([4]; compound 10.0 µM) of the same compound?
A: 0%

Q: What about the residual activity (KDR (human)) of the same compound?
A: 0%

Q: What about the residual activity (MAP3K9 (human)) of the same compound?
A: 0%

Q: And the residual activity (MKNK2 (human); compound 1.0 µM)?
A: 0%

Q: What about the residual activity (MKNK2 (human); compound 10.0 µM) of the same compound?
A: 0%

Q: What about the residual activity (PAK4 (human)) of the same compound?
A: 0%

Q: What about the residual activity (PDPK1 (human); compound 1.0 µM) of the same compound?
A: -1%

Q: What about the residual activity (PDPK1 (human); compound 10.0 µM) of the same compound?
A: 0%

Q: What about the residual activity (PIM2 (human)) of the same compound?
A: -2%

Q: And the residual activity ([5]; compound 1.0 µM)?
A: -1%

Q: And the residual activity ([5]; compound 10.0 µM)?
A: 0%

Q: What about the residual activity (PRKCA (human)) of the same compound?
A: 0%

Q: And the residual activity (PRKX (human))?
A: 0%

Q: And the residual activity (RPS6KA6 KD1 KD2 (human))?
A: -2%

Q: What about the residual activity (STK33 (human)) of the same compound?
A: 0%

Q: And the residual activity (TNK2 (human); compound 1.0 µM)?
A: 0%

Q: What about the residual activity (TNK2 (human); compound 10.0 µM) of the same compound?
A: 0%

Q: What about the residual activity (TSSK1B (human); compound 1.0 µM) of the same compound?
A: -1%

Q: And the residual activity (TSSK1B (human); compound 10.0 µM)?
A: 0%

Q: What about the residual activity (TSSK2 (human)) of the same compound?
A: 0%

Q: What about the residual activity (ULK2 (human)) of the same compound?
A: 0%
